According to patent publication US7456197B2, “Pyridinium cationic lipids as gene transfer agents” (The Texas A&M University System, priority 2003, dated 2008):
Entries after “also recorded” stand apart in the source; their conditions may differ.

How the values were obtained:
[1] = Cationic liposome size by dynamic light scattering; format: physicochemical
Experimental: (§1) The three series of cationic lipids newly synthesized were assessed for their transfection efficiency in vitro, using the experimental conditions optimized in a previous study.^23 Essentially the cationic lipids were mixed with cholesterol at a 1:1 molar ratio, dissolved in chloroform/methanol and dried under vacuum to generate a lipid film. The dried lipid film was hydrated with sterile phosphate buffer isotonic saline with pH=7.4 (PBS) and sonicated to yield cationic liposomes. The resulting liposomal solution was allowed to react with a DNA solution to form the final cationic lipid-DNA complexes (lipoplexes), which were assessed for transfection efficiency using different cell cultures. We used a pGL3 plasmid (Promega, Madison, Wisc.), encoding a firefly luciferase gene under the control of the constitutively active SV40 promoter as the reporter for the transfection efficiency. An optimal^23 electrostatic charge ratio cationic lipid/DNA of 2:1 was used in all preparations. […] The ability of these new cationic lipids to generate relatively small cationic liposomes could be attributed to the relatively large curvature radius induced in the bilayer by the bulky pyridinium cationic head.
(§2) Dioleoylphosphatidylethanolamine (DOPE), cholesterol (CHOL), N-(2,3-dioleoyloxypropyl)-N,N,N-trimethylammonium chloride (DOTAP) were commercial products. The purity of the lipids was checked by thin layer chromatography and also by differential scanning calorimetry (DSC), which was also used for determining the critical temperature Tc. For the preparation of the liposomes a protocol optimized for this type of compounds was adopted as follows. The cationic lipid (with or without helper lipid) was dissolved in chloroform/methanol (2/1, v/v) to reach a final concentration of 1 mM for the charged species. From this stock solution 50 μL were aliquoted in a 1 mL tube and the solvent was evaporated in a SpeedVac evaporator, under vacuum, for 1 h. The dried lipid film was prepared by removing the traces of organic solvent in a dessicator, over Drierite®, under vacuum, overnight. The film was hydrated with 500 μL sterile phosphate buffer saline (PBS) the tube was purged with sterile N2, and vortexed for 1 minute. The liposomes were generated by sonicating the tube in a water bath sonicator for 5-30 minutes at 62° C. and at 37° C. for DOTAP. After sonication the preparations were allowed to reach room temperature.

[2] = system: lung cancer cell line NCI-H23; assay: Luciferase (pGL3) transfection efficiency of lipoplexes, NCI-H23; format: cell-based, human
Experimental: as §1, §2
For generating the lipoplexes, 1.4-2.8 μL plasmid DNA solution (0.5 μg/μL) was diluted with 100 μL Optimem®. A liposome solution was prepared separately by diluting the initial liposomal stock solution (0.1 mM in cationic lipid) with Optimem® in specified proportions, to reach a final volume of 50 μL. Over this liposome solution 50 μL of the DNA stock solution was added, the tube was incubated for 30 minutes at room temperature and then the content diluted with 500 μL Optimem® (final volume of the lipoplex stock solution: 600 μL).
The lipoplexes was tested for their transfection properties over five different cancer cell lines—breast carcinoma (MCF-7 and MDA-Mb231), lung carcinoma (NCI-H23), prostate carcinoma (DU-145) and brain carcinoma (SWB-95). The cells were maintained in 10% fetal bovine serum (FBS)—enriched RPMI 1640 at 37° C. and 5% CO2 in a humidified atmosphere. Twenty-four hours prior to transfection the cells were transferred in 96-wells microtiter plate at a density of 20,000 cells/well. Each well received 100 μL medium and the plate was incubated in the same conditions. All experiments were done in triplicate or quadruplicate.
Immediately before transfection the medium was removed from each well and the cells were briefly washed with 200 μL sterile PBS. After removal of the PBS each well received 100 μL lipoplex stock solution and the plate was placed in the incubator for 1 hour. Then, 100 μL medium was added to each well and the plate was incubated for 24 hours. […]

glioma SWB-95 = assay: Luciferase (pGL3) transfection efficiency of lipoplexes, SWB-95; format: cell-based; conditions: optimized lipoplexes, Chol 1:1, FIG. 7
Source text: It is well known that specific cell types and cell lines may vary in their ability to be transfected. In addition to the NCI-H23 lung cancer cell line, we therefore tested our optimized formulation of 5AMyr/Chol 1:1 versus DOTAP/Chol 1:1 as reference on four other cell lines from tumors representing cancers of great importance to human health, as well as different tissues of origin: breast carcinomas MCF-7, MDA-Mb231, prostate carcinoma DU-145 and glioma SWB-95 (FIG. 7).
Dioleoylphosphatidylethanolamine (DOPE), cholesterol (CHOL), N-(2,3-dioleoyloxypropyl)-N,N,N-trimethylammonium chloride (DOTAP) were commercial products. The purity of the lipids was checked by thin layer chromatography and also by differential scanning calorimetry (DSC), which was also used for determining the critical temperature Tc. For the preparation of the liposomes a protocol optimized for this type of compounds was adopted as follows. The cationic lipid (with or without helper lipid) was dissolved in chloroform/methanol (2/1, v/v) to reach a final concentration of 1 mM for the charged species. […]
For the luciferase assay, 20 μL of cell lysate was aliquoted in a test tube and assessed directly using a luciferase assay kit from Promega by means of a luminometer.
The protein content was quantified using a bicinchoninic acid (BCA) assay. […]

cancer cell line NCI-H23 = assay: WST-1 viability assay of transfected cells; format: cell-based, human
Experimental: FIG. 6. Viability assay results for the cancer cell line NCI-H23 transfected with 5AMyr-5EMyr and DOTAP (Cl^−)-based lipoplexes. The other characteristics were the same as in the transfection experiment represented in FIG. 5.
In order to assess the cytotoxicity associated with every anion, a WST-1^28 viability assay was conducted in parallel.

[3] = system: lung cancer cell line NCI-H23; assay: Luciferase (pGL3) transfection efficiency of lipoplexes, NCI-H23; format: cell-based, human; conditions: exposure from one hour to three hours; data not shown

CCCCCCCCCCCCCC(=O)OCC(COC(=O)CCCCCCCCCCCCC)[n+]1c(C)cc(C)cc1C.F[P-](F)(F)(F)(F)F [Lipid 5AMyr, 1-(1,3-dimyristoyloxypropane-2-yl)-2,4,6-trimethylpyridinium hexafluorophosphate]
average size of the cationic vesicles ([1]; cholesterol at 1:1 molar ratio to cationic lipid): 95 nm | average size of the cationic vesicles ([1]; molar ratio of cholesterol to lipid halved): 88 nm | transfection efficiency, counterion study ([2]; 5Myr/Chol 1:1, PBS, sonicated two sequences of 15 minutes, FIG. 5): surpassed DOTAP in transfection efficiency | expression of luciferase relative to DOTAP/Chol 1:1 ([2]; cholesterol 1:1): about twice more effective than DOTAP | transfection efficiency (in words) ([2]; cholesterol as helper lipid 1:1, charge ratio lipid/DNA 2:1): highest transfection peaks; also recorded: the most effective | transfection efficiency (luciferase activity normalized for protein) ([2]; optimized lipoplexes, Chol 1:1, FIG. 7 caption (from FIG. 4)): 576000 RLU/μg of protein | transfection efficiency (luciferase activity normalized for protein) (glioma SWB-95): 10934 RLU/μg of protein | cytotoxicity (WST-1 viability) (cancer cell line NCI-H23; NCI-H23 transfected with lipoplexes, Chol 1:1, FIG. 6): minimum cytotoxicity; also recorded: lower cytotoxic effect | cytotoxic effect on longer cell exposure to lipoplexes (cancer cell line NCI-H23; exposure from one hour to three hours, data not shown): without any visible cytotoxic effect | transfection efficiency on longer cell exposure to lipoplexes [3]: higher transfection efficiencies
